Results taken from patent US10927089B2, “Diaryl thioether piperazine compounds, preparation methods and uses thereof” (SUNSHINE LAKE PHARMA CO., LTD., priority 2016, dated 2021).

Assay: Pharmacokinetic evaluation after intramuscular injection to rats
Type: in vivo
Settings: im, male rat, solution, 17.5 mg/kg, vortioxetine in plasma
Method: The LC/MS/MS system for analysis consists of the Agilent 1200 series vacuum degassing furnace, binary syringe pump, well plate autosampler, column incubator, and API4000 three-stage quadrupole mass spectrometer equipped with electro spray ionization (ESI) source.
Waters XBridge™ C18, 2.1×30 mm, 3.5 μM column was used for analysis, and 20 μL of sample was injected. Analytical conditions: the mobile phase was (2 mM ammonium formate+0.1% formic acid) (A) and (methanol+2 mM ammonium formate+0.1% formic acid) (B). The flow rate was 0.5 mL/min.
In addition, the API4000 Series LC/MS/MS spectrometer for analysis was equipped with a G1312A binary syringe pump, G1367A autosampler and MS/MS detector; ESI source was used in LC/MS/MS spectrometer. Each analyte was treated in a suitable cation model and optimally analyzed by MRM conversion with using standard solutions. Waters XBridge™ C18 was used during the analysis and the size was: 2.1×30 mm, 3.5 μM. The mobile phase was (2 mM ammonium formate+0.1% formic acid) (A) and (methanol+2 mM ammonium formate+0.1% formic acid) (B). The flow rate was 0.5 mL/min; the column temperature was maintained at 40° C.; 15 μL of sample was injected.
The present invention evaluates the pharmacokinetic study of a series of compounds of the invention in rats. The compound of the present invention was added into a mixture formed by dissolving and dispersing Tween-20 and/or Span-20 in water after being subjected to a pretreatment such as grinding, sieving, etc., and was uniformly dispersed and fixed to a constant volume; the suspension was grinded by a ball mill, then administered. The animals were given a vortioxetine solution (17.5 mg/kg) and a suspension of vortioxetine compound (75 mg/kg) by intramuscular injection. After administration, whole blood was collected at 0.25, 1, 2, 5, 7, 24, 48, 72, 96, 120, 148, and 196 h, and plasma was separated and frozen for testing. And the plasma was centrifuge at 12,000 for 2 minutes. Plasma samples were collected and stored at −20° C. or −70° C. until LC/MS/MS analysis. […] The average drug-time curve of some of the compounds of the present invention after intramuscular injection in rats is shown in FIG. 1.

Cc1ccc(Sc2ccccc2N2CCNCC2)c(C)c1 [WTXT, Vortioxetine]
AUC(0-t) (read-out: Exposure level AUClast): 1370 ng·h/mL
half-life (read-out: Half-life period T1/2 (converted)): 2.74 h
Cmax (read-out: Peak concentration Cmax): 530 ng/mL
Tmax (read-out: Time to peak Tmax): 0.25 h
